A value given as a limit tells only on which side of the number the result lay.

Test [1] concerns the target MAGL (Mus musculus (Mouse), UniProt O35678). Description: In vitro competitive activity-based protein profiling, MAGL (mouse). The test is classed as biochemical. The following applies: for inhibition at 1 µM: read-out: MAGL % inh. 1 μM (mouse). The method in brief:
(§1)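 Competitive ABPP; proteome 1.0 mg/mL total protein; mouse = brain membranes or cell lysates, human = prefrontal cortex or cell membranes. Inhibitor preinc 30 min, 37° C; FP-Rh/HT-01 (50 μM DMSO stock) 30 min, 37° C; SDS-PAGE, in-gel fluorescence of MAGL/FAAH bands.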

The target in test [2] is FAAH (Mus musculus (Mouse), UniProt O08914). Briefly: In vitro competitive activity-based protein profiling, FAAH (mouse). It counts as biochemical. To be noted: for inhibition at 1 µM: read-out: FAAH % inh. 1 μM (mouse). Summed up:
as §1

Sequence of MAGL (O35678 whole entry): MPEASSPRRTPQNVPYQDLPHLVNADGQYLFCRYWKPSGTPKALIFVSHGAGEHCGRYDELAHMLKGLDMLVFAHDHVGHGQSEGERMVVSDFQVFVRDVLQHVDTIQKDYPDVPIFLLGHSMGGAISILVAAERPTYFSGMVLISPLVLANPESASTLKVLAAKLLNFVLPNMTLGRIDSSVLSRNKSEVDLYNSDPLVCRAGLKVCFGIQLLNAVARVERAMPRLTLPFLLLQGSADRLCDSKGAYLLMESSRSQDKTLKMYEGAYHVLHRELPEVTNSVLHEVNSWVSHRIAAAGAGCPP
Sequence of FAAH (O08914 whole entry): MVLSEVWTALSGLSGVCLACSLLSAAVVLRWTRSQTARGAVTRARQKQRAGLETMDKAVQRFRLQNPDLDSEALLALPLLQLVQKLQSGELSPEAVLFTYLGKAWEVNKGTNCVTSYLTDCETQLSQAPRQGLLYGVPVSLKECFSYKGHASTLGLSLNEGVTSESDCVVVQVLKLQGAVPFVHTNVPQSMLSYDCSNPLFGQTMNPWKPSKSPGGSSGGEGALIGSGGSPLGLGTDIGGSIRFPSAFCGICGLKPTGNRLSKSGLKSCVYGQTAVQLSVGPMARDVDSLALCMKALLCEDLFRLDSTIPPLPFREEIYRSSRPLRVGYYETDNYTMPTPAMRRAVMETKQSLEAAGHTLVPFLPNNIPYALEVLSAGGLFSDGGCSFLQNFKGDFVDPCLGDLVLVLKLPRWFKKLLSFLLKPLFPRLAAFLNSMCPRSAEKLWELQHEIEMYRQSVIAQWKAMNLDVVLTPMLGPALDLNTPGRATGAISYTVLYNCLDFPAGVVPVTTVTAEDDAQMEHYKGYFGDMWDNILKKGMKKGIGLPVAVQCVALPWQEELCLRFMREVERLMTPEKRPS

With `CC(=O)N(C)c1cnn(C(=O)N2CC3(CCN(Cc4ccc(Cl)cc4)CC3)C2)c1` [Example 84, N-(1-(7-(4-chlorobenzyl)-2,7-diazaspiro[3.5]nonane-2-carbonyl)-1H-pyrazol-4-yl)-N-methylacetamide], the inhibition at 1 µM is 50 to 75% in test [1] and at least 75% in test [2].

Turning to `CC(=O)N(C)c1cnn(C(=O)N2CC3(CCN(Cc4cccc(Cl)c4)CC3)C2)c1` [Example 85, N-(1-(7-(3-chlorobenzyl)-2,7-diazaspiro[3.5]nonane-2-carbonyl)-1H-pyrazol-4-yl)-N-methylacetamide], the values for the inhibition at 1 µM in test [1] and in test [2] were 50 to 75% and at least 75%, respectively.

As to `CC(=O)N(C)c1cnn(C(=O)N2CC3(CCN(Cc4ccccc4Cl)CC3)C2)c1` [Example 86, N-(1-(7-(2-chlorobenzyl)-2,7-diazaspiro[3.5]nonane-2-carbonyl)-1H-pyrazol-4-yl)-N-methylacetamide], the inhibition at 1 µM in test [1] is 50 to 75%; in test [2] it was at least 75%.

As to `CC(=O)N(C)c1cnn(C(=O)N2CC3(CCN(Cc4ccc(C)cc4)CC3)C2)c1` [Example 87, N-methyl-N-(1-(7-(4-methylbenzyl)-2,7-diazaspiro[3.5]nonane-2-carbonyl)-1H-pyrazol-4-yl)acetamide], the inhibition at 1 µM in test [1] lay in the range of 50 to 75%; in test [2], 25 to 50%.

On to `CC(=O)N(C)c1cnn(C(=O)N2CC3(CCN(Cc4cccc(C(F)(F)F)c4)CC3)C2)c1` [Example 88, N-methyl-N-(1-(7-(3-(trifluoromethyl)benzyl)-2,7-diazaspiro[3.5]nonane-2-carbonyl)-1H-pyrazol-4-yl)acetamide], for which the results for the inhibition at 1 µM in test [1] and in test [2] were 50 to 75% and at least 75%, respectively.

Turning to `CC(=O)N(C)c1cnn(C(=O)N2CC3(CCN(Cc4ccccc4C)CC3)C2)c1` [Example 89, N-methyl-N-(1-(7-(2-methylbenzyl)-2,7-diazaspiro[3.5]nonane-2-carbonyl)-1H-pyrazol-4-yl)acetamide], the inhibition at 1 µM in test [1] and in test [2] was 25 to 50% each time.

As usually defined, the IC50 is the concentration at which inhibition is half-maximal. A low value points to higher potency. For the compound `CC(=O)N(C)c1cnn(C(=O)N2CC3CN(Cc4ccc(C)cc4)CC3C2)c1` (centres unmarked) [Example 91, N-methyl-N-(1-(5-(4-methylbenzyl)octahydropyrrolo[3,4-c]pyrrole-2-carbonyl)-1H-pyrazol-4-yl)acetamide], in test [1], the half-inhibitory concentration (IC50) was in the range of 100 to 1000 nM and the inhibition at 1 µM fell in the range of 50 to 75%. In addition, in test [2], the IC50 was in the range of 100 to 1000 nM and the inhibition at 1 µM is at least 75%.

As to `CC(=O)N(C)c1cnn(C(=O)N2CC3CN(Cc4cccc(C)c4)CC3C2)c1` (centres unmarked) [Example 92, N-methyl-N-(1-(5-(3-methylbenzyl)octahydropyrrolo[3,4-c]pyrrole-2-carbonyl)-1H-pyrazol-4-yl)acetamide], the results for the concentration for half-maximal inhibition (IC50) in test [1] and in test [2] were 100 to 1000 nM and at most 100 nM, respectively. The inhibition at 1 µM in test [1] and in test [2] was at least 75% throughout.

As to `CC(=O)N(C)c1cnn(C(=O)N2CC3CN(Cc4ccc(N5CCCC5)cc4C(F)(F)F)CC3C2)c1` (centres unmarked) [Example 93, N-methyl-N-(1-(5-(4-(pyrrolidin-1-yl)-2-(trifluoromethyl)benzyl)octahydropyrrolo[3,4-c]pyrrole-2-carbonyl)-1H-pyrazol-4-yl)acetamide], in test [1], the IC50 is at most 100 nM and the inhibition at 1 µM is at least 75%. For the same compound, in test [2], the IC50 was at most 100 nM and the inhibition at 1 µM is at least 75%.

Turning to `CC(=O)N(C)c1cnn(C(=O)N2CC3CN(Cc4ccccc4C)CC3C2)c1` (centres unmarked) [Example 94, N-methyl-N-(1-(5-(2-methylbenzyl)octahydropyrrolo[3,4-c]pyrrole-2-carbonyl)-1H-pyrazol-4-yl)acetamide], in test [1], the IC50 was in the range of 100 to 1000 nM and the inhibition at 1 µM was at least 75%. Further, in test [2], the half-maximal inhibitory concentration (IC50) was at most 100 nM and the inhibition at 1 µM was at least 75%.

On to `CC(=O)N(C)c1cnn(C(=O)N2CC3CN(Cc4ccc(N5CCOCC5)c(Cl)c4)CC3C2)c1` (centres unmarked) [Example 95, N-(1-(5-(3-chloro-4-morpholinobenzyl)octahydropyrrolo[3,4-c]pyrrole-2-carbonyl)-1H-pyrazol-4-yl)-N-methylacetamide], for which the inhibition at 1 µM in test [1] and in test [2] was at least 75% each time.

`CC(=O)N(C)c1cnn(C(=O)N2CC3CN(Cc4ccccc4C(F)(F)F)CC3C2)c1` (centres unmarked) [Example 96, N-methyl-N-(1-(5-(2-(trifluoromethyl)benzyl)octahydropyrrolo[3,4-c]pyrrole-2-carbonyl)-1H-pyrazol-4-yl)acetamide]: in test [1], the IC50 is at most 100 nM and the inhibition at 1 µM was at least 75%. In test [2], the IC50 is at most 100 nM and the inhibition at 1 µM is at least 75%.

As to `CC(=O)N(C)c1cnn(C(=O)N2CC3CN(Cc4ccc(N5CCCC5)c(C(F)(F)F)c4)CC3C2)c1` (centres unmarked) [Example 97, N-methyl-N-(1-(5-(4-(pyrrolidin-1-yl)-3-(trifluoromethyl)benzyl)octahydropyrrolo[3,4-c]pyrrole-2-carbonyl)-1H-pyrazol-4-yl)acetamide], the inhibition at 1 µM in test [1] and in test [2] was at least 75% in each case.

As to `CC(=O)N(C)c1cnn(C(=O)N2CC3CN(Cc4ccc(Cl)c(C(F)(F)F)c4)CC3C2)c1` (centres unmarked) [Example 98, N-(1-(5-(4-chloro-3-(trifluoromethyl)benzyl)octahydropyrrolo[3,4-c]pyrrole-2-carbonyl)-1H-pyrazol-4-yl)-N-methylacetamide], in test [1], the IC50 was at most 100 nM and the inhibition at 1 µM is at least 75%. In test [2], the 50% inhibitory concentration (IC50) was at most 100 nM and the inhibition at 1 µM is at least 75%.

On to `CC(=O)N(C)c1cnn(C(=O)N2CC3CN(Cc4ccc(N5CCOCC5)c(C(F)(F)F)c4)CC3C2)c1` (centres unmarked) [Example 99, N-methyl-N-(1-(5-(4-morpholino-3-(trifluoromethyl)benzyl)octahydropyrrolo[3,4-c]pyrrole-2-carbonyl)-1H-pyrazol-4-yl)acetamide], for which the inhibition at 1 µM in test [1] and in test [2] was at least 75% in each case.

As for `CC(=O)N(C)c1cnn(C(=O)N2CC3CN(Cc4ccc(F)c(N5CCCC5)c4)CC3C2)c1` (centres unmarked) [Example 100, N-(1-(5-(4-fluoro-3-(pyrrolidin-1-yl)benzyl)octahydropyrrolo[3,4-c]pyrrole-2-carbonyl)-1H-pyrazol-4-yl)-N-methylacetamide], the IC50 in test [1] and in test [2] was at most 100 nM each time. Also, the inhibition at 1 µM in test [1] and in test [2] was at least 75% in each case.

`CC(=O)N(C)c1cnn(C(=O)N2CC3CN(Cc4ccc(N5CC6CCC(C5)O6)cc4C(F)(F)F)CC3C2)c1` (centres unmarked) [Example 101, N-(1-(5-(4-(8-oxa-3-azabicyclo[3.2.1]octan-3-yl)-2-(trifluoromethyl)benzyl)octahydropyrrolo[3,4-c]pyrrole-2-carbonyl)-1H-pyrazol-4-yl)-N-methylacetamide]: the inhibition at 1 µM in test [1] and in test [2] was at least 75% in each case.

As to `CC(=O)N(C)c1cnn(C(=O)N2CC3CN(Cc4ccc(N5C6CCC5COC6)cc4C(F)(F)F)CC3C2)c1` (centres unmarked) [Example 102, N-(1-(5-(4-(3-oxa-8-azabicyclo[3.2.1]octan-8-yl)-2-(trifluoromethyl)benzyl)octahydropyrrolo[3,4-c]pyrrole-2-carbonyl)-1H-pyrazol-4-yl)-N-methylacetamide], the inhibition at 1 µM in test [1] and in test [2] was at least 75% in each case.

Values taken from patent publication US10323038B2, “Pyrazole compounds and methods of making and using same” (ABIDE THERAPEUTICS, INC., priority 2015, dated 2019).
